Reference: ChEMBL document CHEMBL3826945, “Discovery of novel dihydrobenzofuran cyclopropane carboxylic acid based calcium sensing receptor antagonists for the treatment of osteoporosis” (Bioorg Med Chem Lett, 2016)
Activity calls are given as the source filed them. The rule behind the calls is not given here.

Columns and labels:
[1] = molecular target: T1, Extracellular calcium-sensing receptor (Homo sapiens, UniProt P41180); experiment: Antagonist activity at calcium sensing receptor (unknown origin) by cell based FLIPR assay; assay type: functional
T1 sequence (P41180 whole entry): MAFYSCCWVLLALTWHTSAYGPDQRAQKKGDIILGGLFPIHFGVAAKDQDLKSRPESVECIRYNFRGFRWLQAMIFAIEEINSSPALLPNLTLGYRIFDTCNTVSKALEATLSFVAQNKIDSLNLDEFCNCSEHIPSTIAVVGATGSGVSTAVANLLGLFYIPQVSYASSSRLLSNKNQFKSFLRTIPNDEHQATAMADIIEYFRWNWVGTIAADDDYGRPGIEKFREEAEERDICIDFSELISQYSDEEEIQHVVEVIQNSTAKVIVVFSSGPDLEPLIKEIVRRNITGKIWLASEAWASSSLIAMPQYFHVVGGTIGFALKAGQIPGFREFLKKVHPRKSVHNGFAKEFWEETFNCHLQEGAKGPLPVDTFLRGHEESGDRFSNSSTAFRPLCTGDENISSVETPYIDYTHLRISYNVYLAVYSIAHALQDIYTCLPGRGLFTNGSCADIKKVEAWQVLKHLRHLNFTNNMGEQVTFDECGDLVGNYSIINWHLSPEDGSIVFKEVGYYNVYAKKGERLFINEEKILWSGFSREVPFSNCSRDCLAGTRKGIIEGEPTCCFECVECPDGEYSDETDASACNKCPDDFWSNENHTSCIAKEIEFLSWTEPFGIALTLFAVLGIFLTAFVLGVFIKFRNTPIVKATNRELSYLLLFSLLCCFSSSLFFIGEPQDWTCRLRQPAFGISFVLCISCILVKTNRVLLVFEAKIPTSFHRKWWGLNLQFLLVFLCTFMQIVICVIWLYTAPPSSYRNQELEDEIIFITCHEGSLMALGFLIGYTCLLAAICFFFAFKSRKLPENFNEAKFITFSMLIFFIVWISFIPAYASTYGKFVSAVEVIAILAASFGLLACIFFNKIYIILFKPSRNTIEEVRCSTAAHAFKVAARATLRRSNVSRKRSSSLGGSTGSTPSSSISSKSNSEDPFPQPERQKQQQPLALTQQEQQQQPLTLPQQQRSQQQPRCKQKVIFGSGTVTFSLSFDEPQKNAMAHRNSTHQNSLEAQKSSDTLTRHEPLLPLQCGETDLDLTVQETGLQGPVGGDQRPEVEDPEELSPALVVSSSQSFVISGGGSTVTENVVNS

[2] = Tmax in Sprague-Dawley rat at 2 mg/kg, iv or 5 mg/kg, po; assay type: ADME, organism-based; settings: in vivo
[3] = Half life in Sprague-Dawley rat at 2 mg/kg, iv or 5 mg/kg, po; assay type: ADME, organism-based; settings: in vivo
[4] = test system: Rattus norvegicus; experiment: Stimulation of parathyroid hormone release in po dosed overnight fasted Sprague-Dawley rat serum after 7 days by ELISA; assay type: functional, organism-based
[5] = test system: Rattus norvegicus; experiment: Stimulation of parathyroid hormone release in overnight fasted Sprague-Dawley rat serum at 30 mg/kg, po measured within 1 hour by ELISA relative to vehicle treated control; assay type: functional
[6] = test system: Rattus norvegicus; experiment: Stimulation of parathyroid hormone release in overnight fasted Sprague-Dawley rat serum at 30 mg/kg, po measured after 2 hrs by ELISA; assay type: functional, organism-based
[7] = Clearance in Sprague-Dawley rat plasma at 2 mg/kg, iv or 5 mg/kg, po; assay type: ADME, organism-based
[8] = Cmax in Sprague-Dawley rat at 2 mg/kg, iv or 5 mg/kg, po; assay type: ADME, organism-based; settings: in vivo
[9] = Oral bioavailability in Sprague-Dawley rat at 5 mg/kg; assay type: ADME, organism-based; settings: in vivo

SMILES	IC50 [1] [nM]	other results
Cc1ccc([C@@H](C)OC[C@H](O)CNC(C)(C)Cc2ccc3c(c2)CCS3(=O)=O)c2c1O[C@@H]1[C@@H](C(=O)O)[C@H]21	> 10000	–
Cc1ccc(CC(C)(C)NC[C@@H](O)CO[C@H](C)c2ccc(C)c3c2[C@@H]2[C@H](O3)[C@H]2C(=O)O)cc1C	17.7	–
CSc1ccc(CC(C)(C)NC[C@@H](O)CO[C@H](C)c2ccc(C)c3c2[C@@H]2[C@H](O3)[C@H]2C(=O)O)cc1F	27.6	Tmax [2]: < 1 h; half-life [3]: 1.9 h; Activity [4]: Dose-dependent effect; fold change (FC) [5]: 3; Activity [6]: inactive; clearance [7]: 40.2 mL/min/kg; Cmax [8]: 170 nM; bioavailability [9]: 6.9%
Cc1ccc([C@@H](C)OC[C@H](O)CNC(C)(C)CCCc2ccccc2)c2c1O[C@@H]1[C@@H](C(=O)O)[C@H]21	28.4	–
Cc1ccc([C@@H](C)OC[C@H](O)CNC(C)(C)Cc2ccc3ccccc3c2)c2c1O[C@H]1[C@H](C(=O)O)[C@@H]21	21.6	–
COc1ccc(CC(C)(C)NC[C@@H](O)CO[C@H](C)c2ccc(C)c3c2[C@@H]2[C@H](O3)[C@H]2C(=O)O)c(Cl)c1	19.6	half-life [3]: 2.9 h; clearance [7]: 41 mL/min/kg; Cmax [8]: 300 nM; bioavailability [9]: 16.5%
Cc1ccc([C@@H](C)OC[C@H](O)CNC(C)(C)Cc2ccc3ncccc3c2)c2c1O[C@@H]1[C@@H](C(=O)O)[C@H]21	457	–
Cc1ccc(C(C)OC[C@H](O)CNC(C)(C)CC2Cc3ccccc3C2)c2c1OC1C(C(=O)O)C21 (stereo partly specified)	117	–
Cc1ccc([C@@H](C)OC[C@H](O)CNC(C)(C)Cc2ccc3sccc3c2)c2c1O[C@@H]1[C@@H](C(=O)O)[C@H]21	9.62	–
Cc1ccc(C(C)OC[C@H](O)CNC(C)(C)Cc2ccc3ccccc3c2)c2c1OC1C(C(=O)O)C21 (stereo partly specified)	64.3	–
Cc1ccc([C@@H](C)OC[C@H](O)CNC(C)(C)Cc2ccc3ccccc3c2)c2c1O[C@@H]1[C@@H](C(=O)O)[C@H]21	7.45	–
Cc1ccc([C@@H](C)OC[C@H](O)CNC(C)(C)CCSc2ccccc2)c2c1O[C@@H]1[C@@H](C(=O)O)[C@H]21	50.8	–
CSc1ccc(CC(C)(C)NC[C@@H](O)CO[C@H](C)c2ccc(C)c3c2[C@@H]2[C@H](O3)[C@H]2C(=O)O)cc1	39.3	–
Cc1ccc(C(C)OC[C@H](O)CNC(C)(C)Cc2ccc(Cl)c(F)c2)c2c1OC1C(C(=O)O)C21 (stereo partly specified)	203	–
